Reference: paper PMC9027957, “Interspecies Comparisons of the Effects of Potential Antiviral 3-Amidinophenylalanine Derivatives on Cytochrome P450 1A2 Isoenzyme” (Veterinary Sciences, 2022)

Columns and labels:
[1] = system: chicken hepatic cell model; conditions: cited from earlier work
[2] = system: intestinal epithelial cells (HIEC and IPEC-J2) and primary human hepatocytes (PHH); conditions: up to a concentration 50 μM; cited from earlier work
[3] = system: cynomolgus monkey hepatocytes; assay: MTS cytotoxicity assay in cynomolgus monkey primary hepatocytes; format: cell-based; conditions: 50 μM and 100 μM, 24 h
Protocol: (§1) Rat, beagle, and cynomolgus monkey cryopreserved primary hepatocytes were obtained from Primacyt Cell Culture Company (Schwerin, Germany). The thawing, plating, and maintenance media were purchased from Lonza Group Ltd. (Biocenter Ltd., Szeged, Hungary). Influence of inhibitors MI-432 and MI-1900 on the viability of primary […] hepatocytes was tested. Hepatocytes, grown on a 96-well plate for 24 h, were incubated with the inhibitors at 0, 50, and at 100 µM for 24 h in treated groups. The control cells were incubated only with cell maintenance medium. After removal of the medium and three-fold washing of the cells with phosphate-buffered saline (PBS), 20 μL aliquots of CellTiter 96 AQueous one solution (MTS, Promega, Bioscience, Budapest, Hungary) were pipetted into a 96-well plate, each containing 100 μL of phenol red free medium. The plate was incubated with dye for 2 h. Viability of hepatocytes was measured at 490 nm using an EZ Read Biochrom 400 microplate reader.

[4] = system: rat hepatocytes; assay: MTS cytotoxicity assay in rat primary hepatocytes; format: cell-based; conditions: 50 μM and 100 μM, 24 h
Protocol: as §1

[5] = system: beagle hepatocytes; assay: MTS cytotoxicity assay in beagle primary hepatocytes; format: cell-based; conditions: 50 μM and 100 μM, 24 h
Protocol: as §1

[6] = system: intestinal epithelial cells; conditions: up to a concentration 50 μM; cited from earlier work

| Compound | redox homeostasis [1] | cell death [2] | cell viability vs control [3] | cell viability vs control [4] | cell viability vs control [5] | extracellular hydrogen peroxide levels [6] |
| --- | --- | --- | --- | --- | --- | --- |
| N=C(N)c1cccc(C[C@H](NS(=O)(=O)c2cccc(-c3ccc(Cl)cc3Cl)c2)C(=O)N2CCC(CCN)CC2)c1 [MI-432] | only transiently disturbed | – | – | – | – | – |
| COc1ccc(-c2cccc(S(=O)(=O)N[C@@H](Cc3cccc(C(=N)N)c3)C(=O)N3CCN(C(=O)NC4CCCCC4)CC3)c2)c(OC)c1 [MI-1900] | – | did not cause significant cell death | No significant differences | No significant differences | No significant differences | did not result in elevation in extracellular hydrogen peroxide levels |
